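96-well plates; 48 h exposure; 5 concentrations. Endpoints by linear interpolation between flanking doses. Not reached: highest tested concentration assigned. Here, GI50 denotes the concentration required for 50% inhibition of growth.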 Active and inactive are the calls of the source. Cut-off read from the data, not from the text of the source: active = GI50 up to about 1.1 µM and inactive = higher.
Key:
Test in all cases: NCI anticancer screen, dose series, 48 h
A549 = test system: A549
CCRF-CEM = test system: CCRF-CEM
COLO 205 = test system: COLO 205
EKVX = test system: EKVX
HT-29 = test system: HT-29
Hs-578T = test system: Hs-578T
IGROV-1 = test system: IGROV-1
LOX IMVI = test system: LOX IMVI
NCI-H460 = test system: NCI-H460
OVCAR-8 = test system: OVCAR-8
RXF 393 = test system: RXF 393
SF-268 = test system: SF-268
SK-MEL-28 = test system: SK-MEL-28
SK-MEL-2 = test system: SK-MEL-2
SR = test system: SR
T47D = test system: T47D
UACC-257 = test system: UACC-257
UACC-62 = test system: UACC-62
UO-31 = test system: UO-31
A498 = test system: A498

| SMILES | GI50 (A549) | GI50 (CCRF-CEM) | GI50 (COLO 205) | GI50 (EKVX) | GI50 (HT-29) | GI50 (Hs-578T) | GI50 (IGROV-1) | GI50 (LOX IMVI) | GI50 (NCI-H460) | GI50 (OVCAR-8) | GI50 (RXF 393) | GI50 (SF-268) | GI50 (SK-MEL-28) | GI50 (SK-MEL-2) | GI50 (SR) | GI50 (T47D) | GI50 (UACC-257) | GI50 (UACC-62) | GI50 (UO-31) | GI50 (A498) |
| --- | --- | --- | --- | --- | --- | --- | --- | --- | --- | --- | --- | --- | --- | --- | --- | --- | --- | --- | --- | --- |
| O=c1oc2ccc(Cl)cc2cc1C1=CSC2=NCCN12 | 40.7 µM (inactive) | 20.4 µM (inactive) | 20.9 µM (inactive) | 20.6 µM (inactive) | 18.8 µM (inactive) | 31.7 µM (inactive) | 18.5 µM (inactive) | 18.9 µM (inactive) | 30.3 µM (inactive) | 19.9 µM (inactive) | 21.3 µM (inactive) | 17.8 µM (inactive) | 27.9 µM (inactive) | 23.3 µM (inactive) | 17.1 µM (inactive) | 25.3 µM (inactive) | 37.7 µM (inactive) | 19.5 µM (inactive) | 20.7 µM (inactive) | – |
| S=c1[nH]nc(Cc2ccccc2)c(=S)[nH]1 | > 69.8 µM (inactive) | > 100 µM (inactive) | > 79.6 µM (inactive) | – | > 51.8 µM (inactive) | 33 µM (inactive) | > 53.1 µM (inactive) | > 52.7 µM (inactive) | > 52.5 µM (inactive) | > 61.2 µM (inactive) | 32.8 µM (inactive) | 4.63 µM (inactive) | > 68.2 µM (inactive) | > 43.1 µM (inactive) | > 65 µM (inactive) | 21.6 µM (inactive) | > 56.8 µM (inactive) | > 25.9 µM (inactive) | 46.5 µM (inactive) | > 42.9 µM (inactive) |
| CC(=O)OCC1OC(OC2CC3C(C)(C)C(=O)CC[C@]3(C)C3CC[C@]45C[C@]4(CCC5[C@@H](C)CC(O)C(O)C(C)(C)O)[C@]23C)C(O)C(O)C1O (stereo not given in full) | 17.3 µM (inactive) | 4.13 µM (inactive) | 5.85 µM (inactive) | 16.3 µM (inactive) | 4.23 µM (inactive) | 10.4 µM (inactive) | 11.1 µM (inactive) | 3.72 µM (inactive) | 13.6 µM (inactive) | 13.5 µM (inactive) | 10 µM (inactive) | 10.1 µM (inactive) | 3.24 µM (inactive) | 4.93 µM (inactive) | 4.35 µM (inactive) | 5.68 µM (inactive) | 11.2 µM (inactive) | 10.5 µM (inactive) | 18.2 µM (inactive) | – |
| COc1ccc(/N=C2\C(=N/c3ccc(OC)cc3)N(S(=O)(=O)c3ccccc3)C(=S)N2c2ccccc2)cc1 | > 100 µM (inactive) | – | > 100 µM (inactive) | > 100 µM (inactive) | > 100 µM (inactive) | > 100 µM (inactive) | > 100 µM (inactive) | – | > 100 µM (inactive) | > 100 µM (inactive) | > 100 µM (inactive) | > 100 µM (inactive) | > 100 µM (inactive) | > 100 µM (inactive) | > 100 µM (inactive) | > 100 µM (inactive) | > 100 µM (inactive) | > 100 µM (inactive) | > 100 µM (inactive) | – |
| COc1cc(C2SCC(=O)N2c2ccc(-c3ccc(-n4c(-c5ccccc5)nc5ccccc5c4=O)cc3)cc2)ccc1O (stereo not given) | > 100 µM (inactive) | 42.4 µM (inactive) | > 100 µM (inactive) | > 100 µM (inactive) | 39.2 µM (inactive) | 40.1 µM (inactive) | > 100 µM (inactive) | 27.2 µM (inactive) | > 100 µM (inactive) | 96.6 µM (inactive) | – | 32.7 µM (inactive) | > 100 µM (inactive) | > 100 µM (inactive) | > 10 µM (inactive) | 14.4 µM (inactive) | > 100 µM (inactive) | 21.8 µM (inactive) | 24.4 µM (inactive) | > 100 µM (inactive) |
| CCO/C=C(\C(=O)OC)S(=O)(=O)c1ccc(C)cc1 | > 100 µM (inactive) | > 100 µM (inactive) | > 100 µM (inactive) | > 100 µM (inactive) | > 100 µM (inactive) | > 100 µM (inactive) | > 100 µM (inactive) | > 100 µM (inactive) | > 100 µM (inactive) | > 100 µM (inactive) | > 100 µM (inactive) | > 100 µM (inactive) | > 100 µM (inactive) | > 100 µM (inactive) | > 100 µM (inactive) | > 100 µM (inactive) | > 100 µM (inactive) | > 100 µM (inactive) | 61.7 µM (inactive) | – |
| CC(C)(O)[C@@H]1CC[C@](C)(C2[C@@H](O)C[C@@]3(C)C4C[C@H](OC5OCC(O)C(O)C5O)[C@H]5C(C)(C)[C@@H](OC6OCC(O)C(O)C6OC6OCC(O)C(O)C6O)CC[C@@]56C[C@@]46CC[C@]23C)O1 (stereo not given in full) | > 100 µM (inactive) | > 100 µM (inactive) | > 100 µM (inactive) | > 100 µM (inactive) | > 100 µM (inactive) | > 100 µM (inactive) | > 100 µM (inactive) | – | > 100 µM (inactive) | > 100 µM (inactive) | > 100 µM (inactive) | > 100 µM (inactive) | > 100 µM (inactive) | > 100 µM (inactive) | > 100 µM (inactive) | > 100 µM (inactive) | – | > 100 µM (inactive) | > 100 µM (inactive) | > 100 µM (inactive) |
| C=CC1(c2ccc(OC)cc2)OCCCO1 | > 100 µM (inactive) | > 100 µM (inactive) | > 100 µM (inactive) | 15 µM (inactive) | > 100 µM (inactive) | > 100 µM (inactive) | > 100 µM (inactive) | > 100 µM (inactive) | > 100 µM (inactive) | > 100 µM (inactive) | > 100 µM (inactive) | > 100 µM (inactive) | > 100 µM (inactive) | > 100 µM (inactive) | > 100 µM (inactive) | > 100 µM (inactive) | > 100 µM (inactive) | > 100 µM (inactive) | > 100 µM (inactive) | – |
| N#Cc1c(-c2ccccc2)cc(-c2ccc(Cl)cc2)[nH]c1=S | 38.4 µM (inactive) | 26.4 µM (inactive) | 25.4 µM (inactive) | 30.4 µM (inactive) | 37 µM (inactive) | 38.8 µM (inactive) | 26.7 µM (inactive) | 25.5 µM (inactive) | 32.5 µM (inactive) | 43.6 µM (inactive) | 34 µM (inactive) | 41.3 µM (inactive) | 20.3 µM (inactive) | – | 23.8 µM (inactive) | 18.7 µM (inactive) | – | 27.9 µM (inactive) | 24.8 µM (inactive) | 22.6 µM (inactive) |
| N#Cc1nn(C(N)=O)c(N)c1C#N | > 100 µM (inactive) | > 100 µM (inactive) | > 100 µM (inactive) | > 100 µM (inactive) | > 100 µM (inactive) | > 100 µM (inactive) | > 100 µM (inactive) | – | > 100 µM (inactive) | > 100 µM (inactive) | – | > 100 µM (inactive) | > 100 µM (inactive) | > 100 µM (inactive) | > 100 µM (inactive) | > 100 µM (inactive) | > 100 µM (inactive) | > 100 µM (inactive) | > 100 µM (inactive) | > 100 µM (inactive) |
| CN(C)c1ccccc1CN1CCCN(Cc2ccccc2N(C)C)C1c1ccncc1 | 17.4 µM (inactive) | – | 14.9 µM (inactive) | 13.7 µM (inactive) | 11.6 µM (inactive) | 17.7 µM (inactive) | 14.9 µM (inactive) | 13.6 µM (inactive) | 14 µM (inactive) | 15.4 µM (inactive) | 10.2 µM (inactive) | 18.8 µM (inactive) | 9.06 µM (inactive) | 17.8 µM (inactive) | 4.91 µM (inactive) | 17.7 µM (inactive) | 2.42 µM (inactive) | 14.4 µM (inactive) | 5.02 µM (inactive) | 12.4 µM (inactive) |
| COc1nc(=O)n(C2CC(F)C(CO)O2)cc1C (stereo not given) | > 100 µM (inactive) | > 100 µM (inactive) | > 100 µM (inactive) | > 100 µM (inactive) | > 100 µM (inactive) | > 100 µM (inactive) | > 100 µM (inactive) | > 100 µM (inactive) | > 100 µM (inactive) | > 100 µM (inactive) | – | > 100 µM (inactive) | > 100 µM (inactive) | > 10 µM (inactive) | > 100 µM (inactive) | > 100 µM (inactive) | > 100 µM (inactive) | > 100 µM (inactive) | > 100 µM (inactive) | – |
| O=C(c1ccccc1)N(CCCCNC(=O)C(F)(F)F)CCCNC(=O)C(F)(F)F | > 100 µM (inactive) | > 100 µM (inactive) | > 100 µM (inactive) | > 100 µM (inactive) | > 100 µM (inactive) | > 100 µM (inactive) | > 100 µM (inactive) | > 100 µM (inactive) | > 100 µM (inactive) | > 100 µM (inactive) | > 100 µM (inactive) | > 100 µM (inactive) | > 100 µM (inactive) | – | 0.94 µM (active) | > 100 µM (inactive) | > 100 µM (inactive) | > 100 µM (inactive) | > 100 µM (inactive) | > 100 µM (inactive) |
| COc1ccc(OC2OC(CO)C(OCc3ccccc3)C(OCc3ccccc3)C2OCc2ccccc2)cc1 (stereo not given) | 11.1 µM (inactive) | 6.98 µM (inactive) | 44.4 µM (inactive) | 11.4 µM (inactive) | 9.79 µM (inactive) | 56.9 µM (inactive) | > 100 µM (inactive) | > 100 µM (inactive) | 15.8 µM (inactive) | > 100 µM (inactive) | – | 22.3 µM (inactive) | > 100 µM (inactive) | > 100 µM (inactive) | 15.5 µM (inactive) | 18.8 µM (inactive) | > 100 µM (inactive) | > 100 µM (inactive) | 41 µM (inactive) | > 100 µM (inactive) |

Reference: ChEMBL document CHEMBL1201862, “PubChem BioAssay data set” (2004)
